Key:
Bax = experiment: Western blotting, Bax; assay type: cell-based, human; conditions: A549 cells, 0-10 μM, 72 h, western blot
Method: (§1) Total protein samples were extracted from A549 cells. cells were treated with different concentrations of compounds for 72 h, then the cells were collected, homogenized in 100 µL of ice-cold lysis buffer containing 2% SDS (sodium dodecyl sulfate), 10% DTT (dithiothreitol), 10% glycerin, 0.1% BPB (bromophenol blue) and 50mM Tris buffer (pH 6.8). After cell lyses were boiled for 30 min at 100 °C, samples were resolved on 12% SDS-PAGE (polyacrylamide gel) and then transferred to nitrocellulose (NC) membranes. Then the membranes were blocked with 5% skim milk at room temperature for 1 h. After incubation, the membranes were probed by primary antibodies for β-actin, Bax (BCL2-associated X protein) and Bcl-2 (B-cell lymphoma-2) at 4 °C overnight. After the blots were washed in TBST (Tris-base solution-Tween 20), membranes were incubated with HRP (horseradish peroxidase) -conjugated IgG secondary antibodies for 1 h at 37 °C. Finally, a Chemi-Doc image analyzer was used to determine protein expression levels by analyzing the signals captured on the NC membranes.

caspase-3 = experiment: Caspase-3 activity assay; assay type: cell-based, human; conditions: A549 cells, 0, 1, 5 μM, 48 h
Method: Briefly, A549 cells were cultured at 2 × 10^5 cells/well in 6-well plates and incubated with different concentrations of compounds (0, 1, 5 µM) for 48 h. At the end of the treatment, cells were harvested and lysed by the addition of lysis buffer from the caspase-3 assay kit. Aliquots of cell lysate were added to 96-well plates and the supernatant of cell lysates were mixed with buffer containing the above substrate peptides for 2 h at 37 °C. The absorbance in each well was measured at 405 nm using a microplate reader.

PC-9 cells = experiment: MTT assay, PC-9 cells; assay type: cell-based; conditions: human non-small cell lung cancer cells, 72 h, read-out: Cytotoxic activity (IC50) PC-9
Method: (§2) Primary human liver HL-7702 cells were purchased from SIBS (Shanghai Institutes for Biological Sciences, Shanghai, China) while MCF-7, A549, PC-9 and PC-3 cells were from ATCC (American Type Culture Collection, Rockville, MD, USA). HL-7702, PC-9 and A549 cells were incubated with Roswell Park Memorial Institute (RPMI) 1640 medium and MCF-7 were cultured in Dulbecco’s Modified Eagle’s Medium (DMEM) supplemented with 10% heat-inactivated fetal bovine serum (FBS) and 1% antibiotics (penicillin and streptomycin). PC-3, a human prostate adenocarcinoma cell, was maintained in Ham’s F-12 Medium supplemented with 10% FBS, 1% penicillin/streptomycin and 1% glutamine. All cells were cultured at 37 °C in an incubator containing 5% CO2. The cell viability was determined by using the MTT (methyl thiazolyl tetrazolium bromide) assay. Briefly, cells were seeded in 96-well plates (4 × 10^3 cells/well) overnight and exposed to the synthesized compounds with various concentrations. Camptothecin and dimethyl sulfoxide (DMSO) served as a positive control and a negative control respectively. After 72 h of incubation, 20 μL of MTT (5 mg/mL in phosphate buffer saline (PBS)) were added into each well. Dissolved yellowish MTT is converted to an insoluble purple formazan during incubation (4 h). In order to dissolve the formazan crystals, 100 μL of lysis solution (10% SDS (sodium dodecyl sulfate)-5% isobutyl alcohol-0.01M HCl) was added into per well. Finally, the optical density (OD) of solution in the plates was measured using a microplate reader at 570 nm after dissolving overnight. Cell viability was calculated by using the following formula: […].

PC-3 cells = experiment: MTT assay, PC-3 cells; assay type: cell-based; conditions: human prostate cancer cells, 72 h, read-out: Cytotoxic activity (IC50) PC-3
Method: as §2

A549 cells [1] = experiment: Colony formation assay; assay type: cell-based; conditions: Homo sapiens, read-out: inhibition rate of colony formation
Method: The colony formation assay was executed to assess the colony forming ability of cancer cells treated by compounds. After being trypsinized and counted, the cells were seeded again on a 6-well plate with 4000 cells/well. Subsequently, cells were incubated at 37 °C in 5% CO2 overnight with medium. Afterwards, the cells were being treated with drugs (1 μM, 10 μM) and camptothecin (0.1 μM) for 10 days. Then, fresh PBS (1 mL/well) was added to wash the cells twice, before fixing with the stationary solution (10% acetic acid- 10% methanol- 80% dd H2O, 1 mL/well) at room temperature for 30 min. After that, 1% crystal violet was used to stain the cells. The cell viability was evaluated by the number of purple colonies.

A549 cells [2] = experiment: Hoechst 33258 staining (apoptosis); assay type: cell-based, human; conditions: 72 h
Method: For Hoechst staining, A549 cells were seeded in 6-well plates (8 × 10^4 cells/well) and allowed to adhere overnight. Compounds at a final concentration of 10, 5 and 1 µM were used to treat cells in the exponential growth phase for 72 h. Following this, the staining solution was added to the well plates and held at room temperature for 10 min. Afterwards, Hoechst 33258 was added to dye the cells for 10 min at room temperature in the dark. After washing two times with PBS, the treated cells were photographed under a semi-electrical fluorescence microscope (Olympus BX53, Olympus, Tokyo, Japan), to capture images of the stained nuclei from each well from randomly selected regions.

A549 cells [3] = experiment: MTT assay, A549 cells; assay type: cell-based; conditions: Homo sapiens, A549, 72 h, human non-small cell lung cancer cells, read-out: Cytotoxic activity (IC50) A549
Method: as §2

MCF-7 cells = experiment: MTT assay, MCF-7 cells; assay type: cell-based; conditions: MCF7, human breast cancer cells, 72 h, read-out: Cytotoxic activity (IC50) MCF-7
Method: as §2

Bcl-2 = experiment: Western blotting, Bcl-2; assay type: cell-based, human; conditions: A549 cells, 0-10 μM, 72 h, western blot
Method: as §1

HL-7702 cells = experiment: MTT assay, HL-7702 cells; assay type: cell-based, human; conditions: HL-7702, MTT
Method: as §2

MTT assay, HL-7702 cells = assay type: cell-based, human; conditions: HL-7702 cells (normal liver cells); normal human liver cells, MTT, 72 h; read-out: Cytotoxic activity (IC50) HL-7702
Method: as §2

caspase-3 activity (caspase-3): accumulation of caspase-3 in the cytosol
SMILES: O=c1c2c3c(sc2nc(-c2ccccc2)n1CCc1ccc(O)cc1)CCCCC3 [Compound 15]
Bax protein expression level (Bax): increase of Bax level | IC50 (PC-9 cells): > 100 µM | IC50 (PC-3 cells): 47.5 ± 3.39 µM | inhibition at 1 µM (A549 cells [1]): 56% | nuclear morphology, Hoechst 33258 staining (A549 cells [2]; 1 μM): brightly stained nuclei due to chromatin condensation | nuclear morphology, Hoechst 33258 staining (A549 cells [2]; 5 and 10 μM): cell membrane rupture and contraction were observed | IC50 (A549 cells [3]): 0.94 ± 0.01 µM | IC50 (MCF-7 cells): 17.3 ± 0.2 µM | Bcl-2 protein expression level (Bcl-2): reduction of Bcl-2 level | Bcl-2/Bax ratio (Bcl-2; compared to control): significant decrease in the proportion of Bcl-2/Bax | toxicity to normal human liver cells (HL-7702 cells): no toxicity to normal human liver cells | IC50 at 72 h (MTT assay, HL-7702 cells): > 100 µM
